Source: PubChem BioAssay AID651993 (Sanford-Burnham Center for Chemical Genomics, 2013)
Calls of active or inactive are those of the source.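 The calls were made as follows: active = compounds with mean IC50 at or below 50 µM in this heat-shock counterscreen, flagging likely artifacts; inactive = the rest.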

Test system: C. elegans VP596 Phsp-16.2 GFP/RFP heat-shock reporter
Assay: heat-induced hsp-16.2 reporter inhibition in nematodes, SAR follow-up, counter-screen for SKN-1 inhibitor project, whole organism, C. elegans VP596, GFP/RFP ratio fluorescence (AID 651993)

Structure (SMILES)	IC50
O=C(Nc1ccc(CN2CCOCC2)cc1)c1cc2ccccc2o1	> 64 µM (inactive)
c1ccc(SCc2cc(-c3ccccc3)no2)cc1	> 64 µM (inactive)
COc1cc(CNC2CCCC2)cc(Cl)c1OCc1ccc(F)cc1	> 64 µM (inactive)
O=C(Nc1nc(-c2ccc(Cl)s2)cs1)c1ccccc1	> 64 µM (inactive)
Brc1ccc(CSc2nnc(-c3ccco3)o2)cc1	> 64 µM (inactive)
c1ccc(-c2csc(-c3ccncc3)n2)cc1	> 64 µM (inactive)
O=C(Nc1nc(-c2ccccc2)cs1)c1cccs1	> 64 µM (inactive)
CC(C)c1ccc(C(=O)Nc2ccc(CN3CCOCC3)cc2)cc1	> 64 µM (inactive)
Fc1ccc(-c2csc(-c3ccncc3)n2)cc1	> 64 µM (inactive)
Cc1ccc(Nc2nc(-c3cccs3)cs2)nc1	> 64 µM (inactive)
O=C(/C=C/Nc1ccc(Br)cc1F)c1ccco1	> 64 µM (inactive)
O=C(/C=C/c1cccs1)c1ccc(Br)cc1	> 64 µM (inactive)
Clc1ccc(-c2nnc(-c3ccco3)o2)cc1	> 64 µM (inactive)
CCOc1cc(CNCCSc2nnnn2C)cc(Br)c1OCc1ccc(F)cc1	> 64 µM (inactive)
O=C(/C=C/c1ccccc1)Nc1ccc(CN2CCOCC2)cc1	> 64 µM (inactive)
Cc1ccc(N=C/C(C(=O)C(F)(F)F)=C(\O)c2ccco2)cc1Cl	> 64 µM (inactive)
c1ccc(-c2csc(Nc3ccccn3)n2)cc1	> 64 µM (inactive)
COc1cc(CNC(C)(C)CO)cc(Br)c1OCc1ccc(Cl)cc1	> 64 µM (inactive)
O=C(Nc1nc2c(ccc3ccccc32)s1)c1ccco1	> 64 µM (inactive)
Clc1ccccc1-c1nnc(-c2ccccc2Cl)o1	> 64 µM (inactive)

Structure (SMILES)	IC50
Cc1ccc(-c2noc(-c3cccs3)n2)cc1	> 64 µM (inactive)
O=C(/C=C/Nc1ccc(F)c(Cl)c1)c1ccco1	> 64 µM (inactive)
Cc1oc(-c2ccc(-c3ccccc3)cc2)nc1CN(C)C1CCOC1 (stereo not drawn)	> 64 µM (inactive)
c1ccc2oc(SCc3nc4ccccc4s3)nc2c1	> 64 µM (inactive)
O=C(/C=C/Nc1ccc(F)c(F)c1)c1cccs1	> 64 µM (inactive)
c1ccc2sc(SCc3ccc(-c4nnco4)cc3)nc2c1	> 64 µM (inactive)
Brc1ccc(-c2nnc(-c3ccco3)o2)cc1	> 64 µM (inactive)
Brc1ccc(CSc2nnc(-c3cccnc3)o2)cc1	> 64 µM (inactive)
O=C(Nc1nc(-c2ccc(Cl)s2)cs1)c1ccco1	> 64 µM (inactive)
Cc1ccc(CSc2nnc(-c3ccco3)o2)cc1	> 64 µM (inactive)
O=C(/C=C/Nc1ccc(F)cc1F)c1ccco1	> 64 µM (inactive)
Cc1cc(OCc2cccc(Cl)c2)c(C)cc1CN1CCOCC1	> 64 µM (inactive)
O=C(/C=C/Nc1ccc(F)cc1F)c1cccs1	> 64 µM (inactive)
CCOc1cc(CNC2CCCC2)cc(Cl)c1OCc1ccc(F)cc1	> 64 µM (inactive)
Fc1ccc(COc2ccc(-c3nnco3)cc2)cc1	> 64 µM (inactive)
c1ccc(-c2nc(-c3ccncc3)no2)cc1	> 64 µM (inactive)
CCOc1ccc(-c2nc(-c3cccnc3)no2)cc1	> 64 µM (inactive)
Cc1ccc2nc(-c3ccc(NC(=S)NC4CC(C)(C)NC(C)(C)C4)cc3)sc2c1	> 64 µM (inactive)
O=C(Nc1nc(-c2ccc(Cl)s2)cs1)c1cccs1	> 64 µM (inactive)
Cc1nc2ccccc2cc1OCc1ccc(F)cc1	9.02 µM

Structure (SMILES)	IC50
Fc1ccc(-c2csc(Nc3ccccn3)n2)cc1	> 64 µM (inactive)
O=C(/C=C/Nc1ccccc1F)c1cccs1	> 64 µM (inactive)
CCc1ccc(-c2nc(-c3ccncc3)no2)cc1	> 64 µM (inactive)
CSc1cccc(NC(=O)c2cccc3cccnc23)c1	> 64 µM (inactive)
O=C(/C=C/c1ccc(Br)cc1)c1ccc(NC2=NCCCS2)cc1	> 64 µM (inactive)
Clc1ccc(-c2nnc(-c3ccccc3)o2)c(Cl)c1	> 64 µM (inactive)
Clc1ccccc1-c1nc(-c2ccncc2)no1	> 64 µM (inactive)
CCOC(=O)c1c(-c2ccc(-c3ccccc3)cc2)csc1NC(=O)CNCCN(C)C	> 64 µM (inactive)
Clc1ccc(Nc2nc(-c3cccs3)cs2)nc1	> 64 µM (inactive)
COc1cc(CNC(C)c2ccccc2)cc(Br)c1OCc1ccc(F)cc1 (stereo not drawn)	> 64 µM (inactive)
Fc1ccc(COc2ccc(-c3nnco3)cc2)c(Cl)c1	> 64 µM (inactive)
COc1ccc(C(=O)Nc2nc(-c3cccs3)cs2)cc1	> 64 µM (inactive)
CCOc1cc(CNC2CCCC2)cc(Cl)c1OCc1ccccc1	> 64 µM (inactive)
CCOC(=O)Nc1nc(-c2ccc(F)cc2F)cs1	> 64 µM (inactive)
O=C(Nc1nccs1)c1ccc2ccccc2n1	> 64 µM (inactive)
Cc1ccccc1-c1noc(-c2cccs2)n1	> 64 µM (inactive)
c1ccc(Nc2nc(-c3cccs3)cs2)nc1	> 64 µM (inactive)
Brc1ccc(-c2nc(-c3ccccc3)no2)o1	> 64 µM (inactive)
